From patent US20130317222A1, “SOLID FORMS OF GYRASE INHIBITOR (R)-1-ETHYL-3-[5-[2-(1-HYDROXY-1-METHYL-ETHYL)PYRIMIDIN-5-YL]-7-(TETRAHYDROFURAN-2-YL]-1H-BENZIMIDAZOL-2-YL]UREA” (Vertex Pharmaceuticals Incorporated, priority 2011, published 2013)
Counter-ions that a name gives are not always drawn.

Legend:
[1] = tested on: Streptococcus pneumoniae; test: MIC, micro dilution broth method (Protocol 1); type: cell-based
[2] = tested on: Mycobacterium avium; test: MIC determination procedure for Mycobacterium species (Protocol 4); type: cell-based
[3] = tested on: Enterococcus faecalis; test: MIC, micro dilution broth method (Protocol 1); type: cell-based
[4] = tested on: Escherichia coli; test: MIC against Gram negatives, microdilution broth method (Protocol 2)
[5] = tested on: Proteus mirabilis; test: as above
[6] = tested on: Nocardia caviae; test: MIC determination procedure for Mycobacterium species (Protocol 4); type: cell-based; conditions: Nocardia caviae 2497
[7] = tested on: β-haemolytic streptococci (Groups A, B, C and G); test: MIC, micro dilution broth method (Protocol 1); type: cell-based; conditions: 28 isolates tested
[8] = tested on: Bacteroides and Parabacter spp.; test: MIC, agar dilution method (Protocol 3); type: cell-based; conditions: 26 isolates tested
[9] = tested on: Bacteroides fragilis; test: MIC, agar dilution method (Protocol 3); type: cell-based; conditions: 25 isolates tested
[10] = tested on: N. asteroids; test: MIC determination procedure for Mycobacterium species (Protocol 4); type: cell-based; conditions: N. asteroids 2039
[11] = tested on: Clostridium perfringens; test: microbe, parasite or virus in culture; type: cell-based
[12] = tested on: Neisseria gonorrhoeae; test: MIC, agar dilution method (Protocol 3); type: cell-based
Method: (§1) Plate Pouring: • 1. Prepared 100× drug stocks of each test compound as described in Table 1A. Used a 15 mL centrifuge tube, added 100 uL of each drug stock to 10 mL of molten agar (cooled to 55° C. in water bath). Mixed by inverting tube 2-3× then pour into individually labeled 60×15 mm Petri dish. • 2. […] Poured 4 drug free plates: 2 as positive control, 2 as aerobic control. • 4. Allowed plates to dry. Used same day or stored overnight at RT or stored up to 3 days at 4° C. • 5. Plates were labeled accordingly for drug concentration and strain placement. Plate Inoculation (Performed in Biosafety Cabinet): • 1. Streaked each strain onto individual agar plates as described above. Incubated for required time and environmental condition (i.e. anaerobic, microaerophilic, etc). • 2. Used direct colony suspension method to suspend loopfuls of freshly streaked cells into 4 mL 0.9% […] and vortexed. • 3. Adjusted suspension to O.D.600 0.05 (5×10e7 cfu/mL). Vortexed to mix. • 4. Transferred 0.2 mL of adjusted, mixed cultures to a 96 well plate. When ≦5 strains were tested, all strains were lined together in a single row. When testing >5 strains, transfered strains into plate with no more that 5 strains in a single row. This was necessary to fit on the small plates. • 5. […] The former and latter served as growth and inoculation controls. Incubated one plate from each set of drug-free controls under required atmospheric conditions with MIC plates and one set aerobically to test for contamination with aerobic bacteria. Aerobic culture was negative for growth when working with strict anaerobe or microaerophilic strain. Some growth was visible with N. gonorrhoeae. • 6. Allowed inoculum to dry (for as short a time as necessary), then placed upside down in GasPak with appropriate number of sachets and incubate. • 7. Neisseria spp. were incubated at 37° C. in a5% CO2 environment for 24 h. MIC Determination: Examined the test plates after the correct incubation time and read the MIC endpoint at the concentration where a marked reduction occurred in the appearance of growth on the test plate as compared to that of growth on the positive control plates. [table]

[13] = tested on: Neisseria meningitidis; test: MIC, agar dilution method (Protocol 3); type: cell-based; conditions: 12 isolates tested
Method: as §1

[14] = tested on: Acinetobacter baumannii; test: MIC against Gram negatives, microdilution broth method (Protocol 2)
[15] = tested on: Klebsiella pneumoniae; test: as above
[16] = tested on: Haemophilus influenzae; test: as above; type: cell-based
Text: The specific protocols used were as follows:
Drug Dilutions, Inoculation, MIC Determination: • 1. […] All MICs were done in duplicate. • 6.

[17] = tested on: Clostridium difficile; test: MIC, agar dilution method (Protocol 3); type: cell-based
[18] = tested on: N. nova; test: MIC determination procedure for Mycobacterium species (Protocol 4); type: cell-based; conditions: N. nova 10
[19] = tested on: Peptostreptococcus spp.; test: MIC, agar dilution method (Protocol 3); type: cell-based; conditions: 11 isolates tested
[20] = tested on: Enterococcus faecium; test: MIC, micro dilution broth method (Protocol 1); type: cell-based
[21] = tested on: Staphylococcus epidermidis; test: MIC, micro dilution broth method (Protocol 1); type: cell-based; conditions: Staphlococcus epidermidis, 35 isolates tested
[22] = tested on: Mycobacterium tuberculosis; test: Mycobacterium tuberculosis Serum Shift MIC Assay (Protocol 5); type: cell-based
Text: Protocol #5. Protocol for Mycobacterium tuberculosis Serum Shift MIC Assay
Media Prep: • 1. […] It was important that all media and supplements were sterilized prior to MICs. • 2. Prepared all media below and inoculated as described in next section. Tested all compounds against Mtb using each media. • a. 7H9+0.2% glycerol+10% OADC (“standard” MIC media). • b. 7H9+0.2% glycerol+2 g/L dextrose+0.85 g/L NaCl+0.003 g/L catalase (0% FBS). • c. 2×7H9+0.2% glycerol+2 g/L dextrose+0.85 g/L NaCl+0.003 g/L catalase combined with equal volume Fetal Bovine Serum (50% FBS).
Inoculum Prep: • 1. […] Typically plates were two to three weeks of age when used for this assay due to the slow growth of this organism in culture. • 2. Vortexed well, then sonicated in water bath for 30 sec providing a suspension of ˜10^8 cells/ml. […] Prepared inoculum in each of the three media formulations by diluting the BBL Prompt suspension 1/200 (for example: transferred 0.2 ml of cells to 40 ml of medium) to obtain a starting cell density of ˜10^6 cells/ml. • 4.
Drug Dilutions, Inoculation, MIC Determination: • 1. […]
After 24 hours the fluorescence of each well was measured at Excitation 492 nm, Emission 595 nm.
Percent inhibition by a given compound was calculated as follows: Percent inhibition=100−([well fluorescence-average background fluorescence]/[DMSO control−average background fluorescence]×100).

[23] = tested on: Bacillus cereus; test: MIC, micro dilution broth method (Protocol 1); type: cell-based
[24] = tested on: Staphylococcus aureus; test: MIC, micro dilution broth method (Protocol 1); type: cell-based
[25] = tested on: Pseudomonas aeruginosa; test: MIC against Gram negatives, microdilution broth method (Protocol 2)
[26] = tested on: Bacillus subtilis; test: MIC, micro dilution broth method (Protocol 1); type: cell-based
[27] = tested on: Enterobacter cloacae; test: MIC against Gram negatives, microdilution broth method (Protocol 2)
[28] = tested on: Moraxella catarrhalis; test: as above
[29] = tested on: M. tuberculosis; test: MIC determination procedure for Mycobacterium species (Protocol 4); type: cell-based
[30] = tested on: Prevotella spp.; test: MIC, agar dilution method (Protocol 3); type: cell-based; conditions: 13 isolates tested
[31] = tested on: Fusobacterium spp.; test: MIC, agar dilution method (Protocol 3); type: cell-based; conditions: 16 isolates tested
[32] = Streptococcus pneumoniae, 67 isolates tested
[33] = Enterococcus faecalis, 34 isolates tested
[34] = Neisseria gonorrhoeae, 13 isolates tested
[35] = Haemophilus influenzae, 55 isolates tested
[36] = M. tuberculosis Erdman ATCC 35801
[37] = Staphylococcus aureus, 67 isolates tested

In the case of `CCNC(=O)Nc1nc2cc(-c3cnc(C(C)(C)O)nc3)cc([C@H]3CCCO3)c2[nH]1` [Compound 13, methanesulfonic acid salt of 1-ethyl-3-[5-[2-(1-hydroxy-1-methyl-ethyl)pyrimidin-5-yl]-7-[(2R)-tetrahydrofuran-2-yl]-1H-benzimidazol-2-yl]urea], the MIC ([1]; Streptococcus pneumoniae ATCC 10015, with Laked Horse Blood) is reported as 0.022 µg/mL, the MIC90 [1, 32] is reported as 0.06 µg/mL and the “MIC Range” value [1, 32] is reported as 0.015 to 0.06 µg/mL. For the same compound, the MIC ([2]; M. avium 3404.4) was 0.94 µg/mL, the MIC ([2]; M. avium Far) was 0.94 µg/mL and the MIC ([2]; Mycobacterium avium 103) was 0.47 µg/mL. For the same compound, the MIC ([3]; Enterococcus faecalis ATCC 29212, with Laked Horse Blood) was 0.081 µg/mL, the MIC90 [3, 33] was 0.25 µg/mL and the “MIC Range” value [3, 33] was 0.03 to 0.25 µg/mL. The MIC90 [4] was over 8 µg/mL, the MIC90 [5] was over 8 µg/mL and the MIC [6] was 2 µg/mL. For the same compound, the MIC90 [7] was 0.25 µg/mL, the “MIC Range” value [7] was 0.06 to 0.5 µg/mL and the MIC90 [8] was over 16 µg/mL. It also gave an MIC90 [9] of over 16 µg/mL, an MIC [10] of 8 µg/mL and an MIC90 [11] of 0.5 µg/mL. For the same compound, the MIC ([12]; Neisseria gonorrhoeae ATCC 35541) was 1.3 µg/mL, the MIC ([12]; Neisseria gonorrhoeae ATCC 49226) was 2.3 µg/mL and the MIC90 [12, 34] was 1 µg/mL. For the same compound, the “MIC Range” value [12, 34] was 0.5 to 1 µg/mL, the MIC90 [13] was 0.12 µg/mL and the “MIC Range” value [13] was 0.015 to 0.25 µg/mL. For the same compound, the MIC90 [14] was over 8 µg/mL, the MIC90 [15] was over 8 µg/mL and the MIC ([16]; Haemophilus influenzae (Rd1 KW20) ATCC 51907) was 2.5 µg/mL. It also gave an MIC ([16]; Haemophilus influenzae ATCC 49247) of 1 µg/mL, an MIC ([16]; Haemophilus influenzae Rd0894 (AcrA-)) of 0.14 µg/mL and an MIC90 [16, 35] of 2 µg/mL. For the same compound, the “MIC Range” value [16, 35] was 0.25 to 8 µg/mL, the MIC90 ([17]; Clostridioides difficile, Clostridium difficile, 16 isolates tested) was 1 µg/mL and the MIC ([17]; Clostridium difficile ATCC BAA-1382) was 1 µg/mL. The “MIC Range” value ([17]; Clostridium difficile, 16 isolates tested) was 0.5 to 16 µg/mL, the MIC [18] was 8 µg/mL and the MIC90 [19] was over 16 µg/mL. For the same compound, the MIC90 ([20]; Enterococcus faecium) was 0.5 µg/mL, the MIC ([20]; Enterococcus faecium ATCC 49624, Protocol 1) was 0.25 µg/mL and the MIC ([20]; Enterococcus faecium ATCC 49624 with Laked Horse Blood, Protocol 1) was 0.39 µg/mL. The “MIC Range” value ([20]; Enterococcus faecium, 33 isolates tested, Protocol 1) was 0.12 to 0.5 µg/mL, the “MIC Range” value [21] was 0.03 to 0.25 µg/mL and the MIC90 ([21]; Staphylococcus epidermidis) was 0.12 µg/mL. The MIC [22, 36] was 0.045 µg/mL, the MIC ([22]; M. tuberculosis Erdman ATCC 35801 with Mouse Serum) was 2 µg/mL and the MIC ([23]; Bacillus cereus ATCC 10987) was 0.5 µg/mL. The MIC ([23]; Bacillus cereus ATCC 14579) was 0.5 µg/mL, the MIC ([24]; Staphylococcus aureus ATCC 29213) was 0.13 µg/mL and the MIC ([24]; Staphylococcus aureus ATCC 29213 GyrB T173I) was 1.29 µg/mL. It also gave an MIC ([24]; Staphylococcus aureus ATCC 29213 with Human Serum) of 0.31 µg/mL, an MIC ([24]; Staphylococcus aureus ATCC 29213 with Mouse Serum) of 2 µg/mL and an MIC ([24]; Staphylococcus aureus ATCC 29213 with Rat Serum) of 0.53 µg/mL. The MIC90 [24, 37] was 0.25 µg/mL, the “MIC Range” value [24, 37] was 0.03 to 0.5 µg/mL and the MIC90 [25] was over 8 µg/mL. The MIC ([26]; Bacillus subtilis (168) ATCC 6051) was over 8 µg/mL, the MIC ([26]; Bacillus subtilis ATCC 6638) was over 8 µg/mL and the MIC90 [27] was over 8 µg/mL. The MIC90 [28] was 0.12 µg/mL, the “MIC Range” value ([28]; 26 isolates tested, Protocol 2) was 0.015 to 0.12 µg/mL and the MIC [29, 36] was 0.25 µg/mL. It also gave an MIC ([29]; M. tuberculosis H37Rv ATCC 25618) of 0.37 µg/mL, an MIC90 [30] of over 16 µg/mL and an MIC90 [31] of 2 µg/mL. The “MIC Range” value [31] was 1 to 4 µg/mL.
